This is an account of results in publication PMC10661964 (Current Drug Metabolism, 2023).

Like-named read-outs stand apart in the source and are kept apart here. Marks after values point to notes of the source that are not given here.

The term Tmax denotes the time from dosing to the highest level.

Series [1] in a line: Quantification of nifurtimox and metabolites in human urine (LC-HRMS). Type of series: in vivo. The settings on record: single oral 120 mg nifurtimox; for AE,urine(0–24h), fasted patients: mean of 6 fasted patients with Chagas disease; for AE,urine(0–24h), fed patients: mean of 6 fed patients with Chagas disease. As to the method:
Urine samples were collected from fasted and fed patients pre-dose (0 h) and at four post-dose intervals (0-4, 4-8, 8-12, and 12-24 h) and stored frozen until required. For analysis, urine samples were thawed at room temperature and homogenized by vortex mixing. […] Equal volumes (75 µL) of an internal standard solution of [^2H8]-nifurtimox dissolved in water (10 µg/mL) were added to each urine, calibration, or control sample and mixed thoroughly. Samples from 6 patients were then analyzed using liquid chromatography-high-resolution mass spectrometry (LC-HRMS) with a 1290 Infinity LC system equipped with a diode array detector and an Orbitrap Fusion™ Lumos™ Tribrid™ HRMS (Thermo Fisher Scientific, Bremen, Germany) with a heated electrospray ionization source. For quantification, the LC conditions were as described above for analysis of rat plasma, and the HRMS parameters were: mass range, 120-600 Da in full scan mode and all ion fragmentation in positive ionization mode; resolution, 240,000; ion source voltage, 3500 V; capillary temperature, 300°C; source temperature, 60°C.
The system was calibrated using the relative peak area as a function of concentration, which was obtained by linear regression. Quantification was performed on a mass basis (μg/mL), with the final calculation for the percentage of dose excreted in urine made on a molar basis to account for the substantial differences (up to ~2.5-fold) in the molecular masses of the compounds of interest. The analytical precision for all analytes was in the range of 1.1% to 4.4%, with an accuracy of 94% to 107%. All concentrations in μg/mL were back-calculated to nmol/mL, and these concentrations were then used to calculate a total molar amount based on the urine volume collected during each interval.

Series [2] can be described thus: Plasma PK of total radioactivity, [14C]-nifurtimox and metabolites after oral dosing (HPLC-LSC). It is filed as in vivo. The settings on record: male Wistar rats; for %AUC(0-8) (relative to total radioactivity AUC(0-8)): oral 2.5 mg/kg, M-2+M-3, M-4, M-5 are estimates based on AUC(0-tn); for half-life / Tmax: rat; for half-life: plasma, interval up to 8 h, read-out: t½ (converted). The method, then: (§1) Animals were housed in suitable metabolism cages. […] Blood cells and plasma were separated by centrifugation. Plasma was stored at ≤-15°C prior to analysis. […] All biological samples were weighed immediately. […] The remaining carcass was also wet-weighed.
Aliquots of individual plasma samples were pooled separately for each timepoint by equal volume. For protein precipitation, pooled plasma was treated with a three-fold volume of acetonitrile. Samples were homogenized and precipitated by centrifugation (20,000 g, 5 min). Samples were concentrated and analyzed using high-performance liquid chromatography (HPLC) with off-line radioactivity detection by LSC (HPLC-LSC).

Series [3] can be described thus: Quantification of nifurtimox and metabolites in human plasma (LC-HRMS), plasma PK. Type of series: in vivo. The settings on record: fed; for AUC(tlast-∞) (extrapolated proportion): pooled plasma of 6 patients, single oral 120 mg nifurtimox; for AUC, % of total quantified exposure: sum of AUC of nifurtimox and M-1 to M-6 = 100%, single oral 120 mg. The method, then: Plasma samples from timepoints 0, 0.25, 0.5, 0.75, 1, 1.5, 2, 2.5, 3, 4, 6, 8, 12, 15, and 24 h from 6 patients were analyzed. Blood samples were collected into lithium heparinized tubes. Blood cells and plasma were then separated by centrifugation, and the plasma was stored frozen until needed. For the analysis, plasma samples were thawed at room temperature and homogenized by vortex mixing. Equal volumes of plasma from the six patients for each timepoint were combined to a pooled volume of 200 µL. To precipitate protein, a 3-fold volume of acetonitrile/0.5% formic acid (v/v in water) was added to each pooled sample which was thoroughly mixed and then centrifuged at 20,000 g. […] For all analytes, the analytical precision ranged from 0.1% to 8.8%, and the accuracy was 95% to 108%.

Series [4] is described as follows: Quantification of nifurtimox and metabolites in rat plasma after a single high dose (200 mg/kg). It is filed as in vivo, Wistar rats. The settings on record: Wistar, rat, plasma, po, 200 mg/kg. The method, then:
Blood cells and plasma were then separated by centrifugation, and the plasma was stored at ≤-15°C until required. For analysis, plasma samples were thawed at room temperature and homogenized by vortex mixing. Plasma samples were pooled separately for male and female rats by combining 25 µL from each of the 4 animals for each timepoint. […] To each pooled plasma (100 µL), calibration, or control sample, 300 µL of an internal standard solution containing [^2H8]-nifurtimox (500 ng/mL) and [^2H3]-M-6 (2500 ng/mL) in acetonitrile + 0.5% formic acid in water (v/v) was added and mixed thoroughly. All samples were then centrifuged (20,000 g, 5 min) to precipitate the protein. The supernatant was analyzed using a 1290 Infinity LC system equipped with a diode array detector and an Orbitrap Q-Exactive Plus HRMS (Thermo Fisher Scientific, Bremen, Germany) with a heated electrospray ionization source. […] The mobile phase gradient was: 0 min, 0% B; 2.5 min, 0% B; 3 min, 20% B; 8 min, 45% B; 9 min, 90% B; 10.1 min, 90% B; 12 min, 0% B; 13 min, 0% B. The following HRMS parameters were used: mass range, 120-200 Da (0-2.5 min) and 230-600 Da (2.5-13 min) in full scan mode; resolution, 280,000; ion source voltage, 3500 V; capillary temperature, 300°C; source temperature, 60°C.
The calibration was based on the relative peak area as a function of concentration obtained by linear regression. […] Thus, all concentrations in μg/mL were back-calculated to nmol/mL. The PK parameters for each analyte were calculated using ToxKin software, as described above.

Series [5] can be described thus: Stability study: metabolite profiles in snap-frozen plasma and urine at early timepoints after oral [14C]-nifurtimox. The settings on record: oral 2.5 mg/kg, snap-frozen. It is filed as in vivo, male Wistar rats. The method, then:
as §1
The combined supernatant was analyzed directly using HPLC-LSC.

The nature of series [6]: Mass balance and metabolite profiling in excreta after oral [14C]-nifurtimox in intact rats. The settings on record: intact male Wistar rats, 2.5 mg/kg oral, up to 120 h; 2.5 mg/kg.
Method: After an adaption period, the animals were prepared for the study. Bile duct cannulation was performed on selected animals the day before their use in experiments.
In a mass balance study (n = 5) and a PK study (n = 2 per timepoint), 2.5 mg/kg b.w. […] For i.v. administration, 2.5 mg/kg b.w. […] In an additional stability study, male Wistar rats (n = 3 per timepoint) were administered 2.5 mg/kg b.w. […] The total radioactivity concentration in the dosage form was confirmed by liquid scintillation counting (LSC).
Animals were housed in suitable metabolism cages. Blood was collected from separate rats at 0.25, 0.5, 1, 1.5, 2, 3, 5, and 8 h post-dose and stored in lithium heparinized tubes. Blood cells and plasma were separated by centrifugation. Plasma was stored at ≤-15°C prior to analysis. […] At the end of the study, the cages were rinsed with water, and samples were collected. All biological samples were weighed immediately. Feces samples were homogenized with water to obtain a uniform radioactivity distribution. All samples were stored deep-frozen at ≤-15/-70°C before further processing. During the necropsy, selected organs and tissues were collected and wet-weighed. The remaining carcass was also wet-weighed. The carcass and all tissues were homogenized and stored at room temperature prior to processing for analysis. In the stability study, blood and urine were collected at 0.25 and 0.5 h post-dose. Plasma and urine were immediately frozen in liquid nitrogen and stored at -80°C to prevent degradation. The total radioactivity in samples and tissues was determined by LSC after appropriate sample preparation.
Aliquots of individual urine or bile samples were pooled separately for each time interval by equal volume and analyzed using HPLC-LSC. Aliquots of individual feces samples were pooled separately for each time interval, ensuring that each aliquot contained the same amount of radioactivity. The pooled samples were extracted twice with a mixture of acetonitrile/water (80:20 v/v, 2 x 0.5 mL). The resulting suspensions were centrifuged (20,000 g, 5 min), and the supernatants were then combined for each time interval, concentrated, and subjected to HPLC-LSC.
The amount of total radioactivity in urine, feces, bile, and tissues was determined by multiplying the volume or weight of the samples by the respective total radioactivity concentration. The amount of radioactivity recovered in the excreta (AE), cage wash, and tissues was compared with the administered radioactive dose to establish the radioactive balance. Cumulative excretion was calculated as the sum of the excretion for each collection interval. Arithmetic means and coefficients of variation (CV) were calculated for these percentages. During metabolite profiling, the concentration or amount of each analyte for each sample and timepoint or interval was calculated by multiplying the total radioactivity concentration or amount excreted of each sample with the percent area of each analyte obtained after HPLC-LSC separation.
Where [7] appears, read: single oral 2.5 mg/kg [14C]-nifurtimox, pooled plasma.
[8] abbreviates: single oral 2.5 mg/kg [14C]-nifurtimox.
Setting [9] is: female, read-out: AUC(0–24), female animals.
The mark [10] stands for this setting: female, read-out: AUC, female animals.
[11] abbreviates: female, read-out: Cmax, female animals.
[12] abbreviates: female, read-out: tmax, female animals.
[13] abbreviates: female, read-out: t½, female animals (converted).
Where [14] appears, read: male, read-out: AUC(0–24), male animals.
Setting [15] is: male, read-out: AUC, male animals.
Where [16] appears, read: male, read-out: Cmax, male animals.
Setting [17] is: male, read-out: tmax, male animals.
Where [18] appears, read: male, read-out: t½, male animals (converted).

With `CC1CS(=O)(=O)CCN1/N=C/C(=O)CCC#N` (stereo not drawn) [M-1], the “AE,urine(0–24h), fasted patients” value in series [1] was 3.2 % of dose. In addition, the “AE,urine(0–24h), fed patients” value in series [1] is recorded as 2.0 % of dose. In addition, the “%AUC(0-8) (relative to total radioactivity AUC(0-8))” value in series [2] is recorded as 16.1%. For the same molecule, the values for the AUC in series [2] (setting [7]), in series [4] (setting [10]) and in series [4] (setting [15]) were 767 µg-eq*h/L, 44.2 µM·h and 46.6 µM·h, respectively. Moreover, the “AUC(0-8)” value in series [2] (setting [7]) is 715 µg-eq*h/L. For the same molecule, the “AUC(0-tn)” value in series [2] (setting [7]) stood at 715 µg-eq*h/L. Also, the Cmax in series [2] (setting [7]) was 138 µg-eq/L; in series [4] (setting [11]), 2050 nM; in series [4] (setting [16]), 1390 nM. For the same molecule, in series [2] (setting [7]), the “tn (time of last quantifiable concentration)” value amounted to 8 h. Also, the half-life in series [2] (setting [8]) is 1.36 h; in series [4] (setting [13]), 4.6 h; in series [4] (setting [18]), 4.2 h. Also, the results for the Tmax in series [2] (setting [7]), in series [4] (setting [12]) and in series [4] (setting [17]) were 3 h, 8 h and 24 h, respectively. In addition, in series [3], the “AUC(tlast-∞) (extrapolated proportion)” value is given as 7.6%. In addition, the “AUC, % of total quantified exposure” value in series [3] stood at 1.8%. Also, the AUC(0-t) in series [4] (setting [9]) was 36.7 µM·h; in series [4] (setting [14]), 28.2 µM·h. Also, the “share of sample radioactivity in plasma” value in series [5] (0.25 h post-dose) is given as 1.4 % of sample radioactivity; in series [5] (0.5 h post-dose), 2.3 % of sample radioactivity. For the same molecule, the “component excreted in feces, oral dosing” value in series [6] is given as 1.5 % of the administered dose.
On to `CC1CS(=O)(=O)CCN1/N=C/C(CCC(=O)O)=N\O` (stereo not drawn) [M-2], for which, in series [1], the “AE,urine(0–24h), fasted patients” value is 1.0 % of dose. Besides, the “AE,urine(0–24h), fed patients” value in series [1] is listed as 2.4 % of dose. In series [3], the “AUC(tlast-∞) (extrapolated proportion)” value was 7.8%. Also, in series [3], the “AUC, % of total quantified exposure” value worked out at 1.4%. In addition, the AUC(0-t) in series [4] (setting [9]) worked out at 3.22 µM·h; in series [4] (setting [14]), 3.31 µM·h. Further, the AUC in series [4] (setting [10]) came out at 3.63 µM·h; in series [4] (setting [15]) it was 13.4 µM·h. The Cmax amounted to 447 nM in series [4] (setting [11]) and 220 nM in series [4] (setting [16]). Besides, the Tmax in series [4] (setting [12]) and in series [4] (setting [17]) was 2 h each time. In addition, the half-life was 8.5 h in series [4] (setting [13]) and 63.3 h in series [4] (setting [18]).
Take `CC1CS(=O)(=O)CCN1/N=C/C(=O)CCC(=O)O` (stereo not drawn) [M-3]: the “AE,urine(0–24h), fasted patients” value in series [1] is on record as 0.06 % of dose. The “AE,urine(0–24h), fed patients” value in series [1] is listed as 0.15 % of dose. In addition, the “AUC(tlast-∞) (extrapolated proportion)” value in series [3] is given as 49.2%. Further, in series [3], the “AUC, % of total quantified exposure” value is 1.2^a %. For the same molecule, the AUC(0-t) in series [4] (setting [9]) came to 3.54 µM·h; in series [4] (setting [14]), 3.64 µM·h. For the same molecule, the results for the AUC in series [4] (setting [10]) and in series [4] (setting [15]) were 3.7 µM·h and 10.1 µM·h, respectively. Besides, the Cmax in series [4] (setting [11]) was 547 nM; in series [4] (setting [16]), 255 nM. For the same molecule, the Tmax in series [4] (setting [12]) and in series [4] (setting [17]) was 1 h throughout. For the same molecule, the half-life in series [4] (setting [13]) is 5.8 h; in series [4] (setting [18]), 39.6 h. Further, the “component excreted in feces, oral dosing” value in series [6] was 3.6 % of the administered dose.
On to `CC(=O)NC(CSc1ccc(=O)n(N2CCS(=O)(=O)CC2C)c1)C(=O)O` (stereo not drawn) [M-5], for which the “AE,urine(0–24h), fasted patients” value in series [1] is reported as 3.4 % of dose. Besides, in series [1], the “AE,urine(0–24h), fed patients” value was 6.6 % of dose. Also, in series [2] (2.5 mg/kg), the “%AUC(0-8) (relative to total radioactivity AUC(0-8))” value is reported as 2.30^c %. The AUC in series [2] (setting [7]) is 177 µg-eq*h/L; in series [4] (setting [10]), 2.43 µM·h; in series [4] (setting [15]) it was 8.02 µM·h. In addition, in series [2] (setting [7]), the “AUC(0-tn)” value amounted to 102 µg-eq*h/L. Moreover, the Cmax in series [2] (setting [7]) was 32.1 µg-eq/L; in series [4] (setting [11]), 186 nM; in series [4] (setting [16]) it was 328 nM. Moreover, in series [2] (setting [7]), the “tn (time of last quantifiable concentration)” value turned out to be 5 h. The half-life is 3.76 h in series [2] (setting [8]), 25.3 h in series [4] (setting [13]) and 8.2 h in series [4] (setting [18]). The values for the Tmax in series [2] (setting [7]), in series [4] (setting [12]) and in series [4] (setting [17]) were 1.5 h, 3 h and 3 h, respectively. The “AUC(tlast-∞) (extrapolated proportion)” value in series [3] is listed as 11.7%. Besides, the “AUC, % of total quantified exposure” value in series [3] came to 0.5%. For the same molecule, the AUC(0-t) in series [4] (setting [9]) was 1.42 µM·h; in series [4] (setting [14]) it was 4.64 µM·h.
